Values quoted from earlier work, collected in patent US10806768B2, “Composition for promoting metallothionein production” (priority 2016, dated 2020).

CC(=O)N[C@@H](CS)C(=O)O [NAC, N-Acetyl-Cysteine]
oxidative glutathione disulfide (GSSG) level, NAC group (only at a trend level of significance, p=0.09): increased | CGI-I, NAC versus placebo groups (p>0.69): no statistically significant difference | glutathione (GSH) level in blood, NAC group (versus placebo, p<0.05): significantly higher | DNA strand break and oxidative damage, NAC versus placebo groups (week 12): no significant difference | GSH/GSSG ratio, NAC versus placebo groups (week 12): no significant difference | blood homocysteine levels, NAC versus placebo groups (week 12): no significant difference
